“Also recorded” adds a separate entry of the source. Numbered stars: 1 amine (or outer) side, 2 acyl side, 3 side chain; on linkers, the order of the positions; unused ones are H or OH. Square brackets hold non-standard residues; d marks the D form. Ends that are not written are not given here. γGlu = O=C(O)[C@H](CCC(=O)[*:2])N[*:1]; Abu = CC[C@H](N)C(=O)O
Key:
Nrf2 mRNA = Nrf2 mRNA expression level by real-time PCR in Tert-BHP-treated HEK293 cells; format: cell-based; settings: Tert-BHP 300 μM, peptide 500 μM, 18 hours; for effect on expression of Nrf2 mRNA: FIGS. 5A to 5C; for Nrf2 mRNA expression compared to positive control GSH: vs GSH
Experimental: In the present invention, the antioxidant activity was compared between the 100 types of peptides, and the change in Nrf2 mRNA expression was measured through PCR in order to select the final peptide.
(§1) An HEK293 cell (kidney cell) line was seeded at a density of 6.6×10^5/well in DMEM (Dulbecco's Modified Eagle's Medium) medium on a 6-well plate and cultured at 37° C. under 5% CO2 for 24 hours. The next day, the medium was exchanged with serum and amino-acid-free media, and then the cells were further cultured for 20 hours or longer. The cells were treated with Tert-BHP (300 μM) and 500 μM 100 types of peptides, and then cultured for 18 hours.
RNA was extracted from the cells treated with 100 types of peptides in (1) using TRIzol (Thermo Fisher Scientific). A GoScript™ Reverse Transcription System (Promega, Wisconsin, USA) was used to synthesize cDNA from the RNA. The cDNA was synthesized by performing annealing using 1 μg of RNA, 0.5 μg of an oligo dt primer, 0.5 μg of a random primer and RT-PCR pre-mixture at 25° C. for 5 minutes, extension at 42° C. for 60 minutes, and inactivation at 70° C. for 15 minutes.
(§2) PCR was performed using Maxime™ PCR PreMix (i-StarTaq) (Intron Biotechnology, Korea). Real-time PCR was performed using SsoAdvanced™ Universal SYBR® Green Supermix (Bio-Rad, USA). 100 ng of cDNA, 2 μM (pmol/μl) primers, 10 μl of 2X SsoAdvanced™ Universal SYBR® Green Supermix and DW were added to the PCR plate well. Then, the temperature was cyclically adjusted to 95° C. for 3 minutes, 95° C. for 10 seconds and 58° C. for 40 seconds for a total of 40 cycles. A PCR reaction was performed using a CFX96 Touch™ Real-Time PCR Detection System (Bio-Rad, California, USA), and fluorescence intensity was measured at the end of each cycle.

SOD2 mRNA = SOD2 mRNA expression level by real-time PCR in Tert-BHP-treated HEK293 cells; format: cell-based; settings: Tert-BHP 300 μM, peptide 500 μM, 18 hours; for effect on SOD2 mRNA expression: FIG. 6; for SOD2 mRNA expression compared to positive control GSH: vs GSH
Experimental: The expression of SOD2 mRNA as another antioxidant factor was determined. The cell line culture, RNA extraction, cDNA synthesis and PCR experiments were performed in the same manner as in Experimental Example 5 above. A detailed description thereof is given below.
as §1, with “and” for “under”
RNA was extracted from the cells treated with 100 types of peptides in (1) using TRIzol (Thermo Fisher Scientific). A GoScript™ Reverse Transcription System (Promega, Wisconsin, USA) was used to synthesize cDNA from the RNA. The cDNA was synthesized by performing annealing with 1 μg RNA, 0.5 μg of an oligo dt primer, 0.5 μg of a random primer, and RT-PCR pre-mixture at 25° C. for 5 minutes, extension at 42° C. for 60 minutes, and inactivation at 70° C. for 15 minutes.
as §2, with “using the” for “using a”

β-GLU-HIS
effect on expression of Nrf2 mRNA (Nrf2 mRNA): no effect

γ-GLU-ALA-GLY (Glu-Ala-Gly; not fully specified (residue 1); printed as γ-GLU-ALA-GLY)
effect on expression of Nrf2 mRNA (Nrf2 mRNA): improve the expression of Nrf2 mRNA

γ-GLU-Abu-GLY ([γGlu]-[Abu]-Gly; also: γ-peptide bond from Glu side chain carboxyl to Abu)
effect on expression of Nrf2 mRNA (Nrf2 mRNA): improve the expression of Nrf2 mRNA
effect on SOD2 mRNA expression (SOD2 mRNA): increased SOD2 mRNA expression
SOD2 mRNA expression compared to positive control GSH (SOD2 mRNA): remarkably excellent

γ-GLU-CYS(S-Me)-GLY ([γGlu]-Cys(Me)-Gly)
effect on expression of Nrf2 mRNA (Nrf2 mRNA): improve the expression of Nrf2 mRNA

γ-GLU-GLN-GLN ([γGlu]-Gln-Gln)
effect on expression of Nrf2 mRNA (Nrf2 mRNA): improve the expression of Nrf2 mRNA
effect on SOD2 mRNA expression (SOD2 mRNA): increased SOD2 mRNA expression

γ-GLU-GLU-GLU ([γGlu]-Glu-Glu)
effect on expression of Nrf2 mRNA (Nrf2 mRNA): improve the expression of Nrf2 mRNA

γ-GLU-ILE-GLY ([γGlu]-Ile-Gly)
effect on expression of Nrf2 mRNA (Nrf2 mRNA): improve the expression of Nrf2 mRNA
Nrf2 mRNA expression compared to positive control GSH (Nrf2 mRNA): remarkably excellent effect; also recorded: statistically significant activity
effect on SOD2 mRNA expression (SOD2 mRNA): increased SOD2 mRNA expression
SOD2 mRNA expression compared to positive control GSH (SOD2 mRNA): remarkably excellent; also recorded: statistically significant activity

γ-GLU-LEU-GLY ([γGlu]-Leu-Gly)
effect on expression of Nrf2 mRNA (Nrf2 mRNA): improve the expression of Nrf2 mRNA

γ-GLU-ORN
effect on expression of Nrf2 mRNA (Nrf2 mRNA): improve the expression of Nrf2 mRNA
Nrf2 mRNA expression compared to positive control GSH (Nrf2 mRNA): comparable or superior

γ-GLU-PRO-GLY ([γGlu]-Pro-Gly)
effect on expression of Nrf2 mRNA (Nrf2 mRNA): improve the expression of Nrf2 mRNA
Nrf2 mRNA expression compared to positive control GSH (Nrf2 mRNA): remarkably excellent effect; also recorded: statistically significant activity
effect on SOD2 mRNA expression (SOD2 mRNA): increased SOD2 mRNA expression
SOD2 mRNA expression compared to positive control GSH (SOD2 mRNA): remarkably excellent; also recorded: statistically significant activity

γ-GLU-SER-GLY ([γGlu]-Ser-Gly; also: gamma-glutamyl isopeptide bond (Glu side chain to Ser))
effect on expression of Nrf2 mRNA (Nrf2 mRNA): improve the expression of Nrf2 mRNA
Nrf2 mRNA expression compared to positive control GSH (Nrf2 mRNA): statistically significant activity
SOD2 mRNA expression compared to positive control GSH (SOD2 mRNA): remarkably excellent; also recorded: statistically significant activity

γ-GLU-VAL-ALA ([γGlu]-Val-Ala; also: gamma-glutamyl isopeptide bond (Glu side chain to Val))
effect on expression of Nrf2 mRNA (Nrf2 mRNA): improve the expression of Nrf2 mRNA
effect on SOD2 mRNA expression (SOD2 mRNA): increased SOD2 mRNA expression

γ-GLU-VAL-ARG ([γGlu]-Val-Arg; also: gamma-glutamyl isopeptide bond (Glu side chain to Val))
effect on expression of Nrf2 mRNA (Nrf2 mRNA): improve the expression of Nrf2 mRNA
Nrf2 mRNA expression compared to positive control GSH (Nrf2 mRNA): remarkably excellent effect; also recorded: statistically significant activity
effect on SOD2 mRNA expression (SOD2 mRNA): increased SOD2 mRNA expression
SOD2 mRNA expression compared to positive control GSH (SOD2 mRNA): remarkably excellent; also recorded: statistically significant activity

γ-GLU-VAL-ASN ([γGlu]-Val-Asn; also: gamma-glutamyl isopeptide bond (Glu side chain to Val))
effect on expression of Nrf2 mRNA (Nrf2 mRNA): improve the expression of Nrf2 mRNA
Nrf2 mRNA expression compared to positive control GSH (Nrf2 mRNA): remarkably excellent effect; also recorded: statistically significant activity
effect on SOD2 mRNA expression (SOD2 mRNA): increased SOD2 mRNA expression
SOD2 mRNA expression compared to positive control GSH (SOD2 mRNA): remarkably excellent; also recorded: statistically significant activity

γ-GLU-VAL-ASP ([γGlu]-Val-Asp; also: gamma-glutamyl isopeptide bond (Glu side chain to Val))
effect on expression of Nrf2 mRNA (Nrf2 mRNA): improve the expression of Nrf2 mRNA
Nrf2 mRNA expression compared to positive control GSH (Nrf2 mRNA): remarkably excellent effect; also recorded: statistically significant activity
effect on SOD2 mRNA expression (SOD2 mRNA): increased SOD2 mRNA expression
SOD2 mRNA expression compared to positive control GSH (SOD2 mRNA): remarkably excellent; also recorded: statistically significant activity
